{"source": "paper PMC9532399", "about": "“The lysosomal transporter TAPL has a dual role as peptide translocator and phosphatidylserine floppase” (Nature Communications, 2022)", "molecular_target": "T1, mouse TAPL ΔTMD0 (Mus musculus, UniProt Q9JJ59)", "T1 construct": "thrombin cleavage site (C); eGFP (C); 10XHis (C); made in house; host or cells: Trichoplusia ni High Five (Hi5) insect cells, baculovirus (pVL1393)", "T1 sequence (Q9JJ59 143-762)": "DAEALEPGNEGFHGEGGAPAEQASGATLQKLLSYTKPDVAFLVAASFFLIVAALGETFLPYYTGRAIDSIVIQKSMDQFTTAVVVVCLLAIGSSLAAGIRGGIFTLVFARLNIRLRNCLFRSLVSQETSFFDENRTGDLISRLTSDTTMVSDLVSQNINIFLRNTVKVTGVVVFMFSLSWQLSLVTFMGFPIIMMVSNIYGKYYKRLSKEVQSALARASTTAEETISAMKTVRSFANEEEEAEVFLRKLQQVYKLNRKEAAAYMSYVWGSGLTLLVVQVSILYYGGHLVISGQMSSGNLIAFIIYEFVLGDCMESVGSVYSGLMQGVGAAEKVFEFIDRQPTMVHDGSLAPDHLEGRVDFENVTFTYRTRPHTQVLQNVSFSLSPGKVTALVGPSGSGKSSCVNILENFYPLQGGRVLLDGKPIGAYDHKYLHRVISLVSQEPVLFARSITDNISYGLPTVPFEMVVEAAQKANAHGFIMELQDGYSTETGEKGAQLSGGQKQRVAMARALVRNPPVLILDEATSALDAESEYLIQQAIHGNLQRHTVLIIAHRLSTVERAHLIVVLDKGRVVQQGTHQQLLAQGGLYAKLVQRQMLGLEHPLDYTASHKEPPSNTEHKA", "test": "Dithionite-based flip-flop (floppase) assay of NBD*-labeled lipids, ΔTMD0 proteoliposomes", "type": "biochemical", "conditions": "for fluorescence remaining after dithionite: 10 mM dithionite", "procedure": "All lipids used in reconstitution were purchased from Avanti Polar Lipids, Inc. (purity > 99%). The in vitro flip–flop assay was performed using NBD* dye-labeled proteoliposomes as described previously. Briefly, E. coli polar lipids and egg PC were mixed in a 1:1 molar ratio, and 0.5% (mol/mol) NBD*-lipid was added. The lipid mixture was then dried under nitrogen gas. The NBD*-lipids used were 18:1-06:0 NBD*-PS (1-oleoyl-2-{6-[(7-nitro-2-1,3-benzoxadiazol-4-yl)amino]hexanoyl}-sn-glycero-3-phosphoserine), 18:1-06:0 NBD*-PC (1-oleoyl-2-{6-[(7-nitro-2-1,3-benzoxadiazol-4-yl)amino]hexanoyl}-sn-glycero-3-phosphocholine), 18:1-06:0 NBD*-PG (1-oleoyl-2-{6-[(7-nitro-2-1,3-benzoxadiazol-4-yl)amino]hexanoyl}-sn-glycero-3-[phospho-rac-(1-glycerol)]), 18:1-06:0 NBD*-PE (1-oleoyl-2-{6-[(7-nitro-2-1,3-benzoxadiazol-4-yl)amino]hexanoyl}-sn-glycero-3-phosphoethanolamine), and 25-NBD*-Cholesterol (25-[N-[(7-nitro-2-1,3-benzoxadiazol-4-yl)methyl]amino]−27-norcholesterol). Thin lipid films were solubilized in 20 mM HEPES–NaOH pH 8.0, 200 mM NaCl and 5% (v/v) glycerol, incubated at RT for 30 min and subjected to 5 freeze–thaw cycles. After extrusion with a Mini-Extruder at 65 °C, final lipid concentrations were determined by phosphorus assays. Briefly, 10 μL of extruded lipid was added to 10 μL of 2% (w/v) ammonium molybdate and 300 μL of concentrated perchloric acid. The mixture was heated at 250 °C for 30 min, then cooled to RT and mixed with 1.5 mL of 0.4% (w/v) ammonium molybdate and 250 μL of 9% (w/v) L-ascorbic acid. It was again heated at 100 °C for 6 min and cooled to RT. Lipid concentrations were calculated from the absorbance at 820 nm using a standard curve prepared with NaH2PO4 solution. After accurately determining the lipid concentration, DM-purified protein and 5 mM lipid suspension (solubilized in 5 mM DM) were mixed 1:25 (w/w). After incubation at 4 °C for 1.5 h, DM detergent was removed with 75 mg Bio-beads SM-2 by periodic gentle shaking for 1 h at 4 °C (Supplementary Fig. 5a). The beads were replaced once, followed by an additional incubation at 4 °C for 2 h to completely remove detergent. The resulting proteoliposomes were collected by ultracentrifugation at 200,000×g for 1.5 h at 4 °C.\nTo measure the flip–flop activity, 10 μL of 2 mM NBD*-labeled proteoliposomes were added to 100 μL of reaction buffer (20 mM HEPES–NaOH pH 8.0, 200 mM NaCl, 5 mM ATP and 5% (v/v) glycerol) in the presence of 2 mM MgCl2 (or NaCl), and incubated at 37 °C for 1 h. The mixture was transferred to a 96-well plate and time-dependent fluorescence (λex/λem = 460/538 nm) was recorded every 30 s for 26 min using a fluorescence spectrophotometer (Gemini XPS). After the baseline fluorescence had stabilized, 10 mM sodium dithionite was added to quench the fluorescence of NBD*-lipid present in the outer leaflets of the liposomes. The initial rapid drop and subsequent slow decline in fluorescence intensity were monitored. When a new steady state was established, 1% (v/v) Triton X-100 was added to completely disrupt the liposomes. The net percentage of NBD*-lipid translocated across the lipid bilayer was calculated from the following equation[72]: the percentage of protected NBD*-lipid in the inner leaflet = [(FD−F0)/(FT−F0)]×100, and that of accessible NBD*-lipid in the outer leaflet = [(FT−FD)/(FT−F0)]×100, where FT is the total fluorescence of the sample before the addition of dithionite, FD is the fluorescence of the sample after quenching with dithionite, and F0 is any residual fluorescence of the sample after solubilization with Triton X-100. Fluorescence values (FT, FD, F0) were calculated as the averages of 5 points on the respective plateau lines. The ΔTMD0-mediated lipid floppase activity was determined by subtracting the percentage of NBD*-lipid fluorescence measured in the presence of Na^+/ATP from that measured in the presence of Mg^2+/ATP.", "data": [{"molecule": "RRYQNSTC^5-IAFL [9-mer, 5-IAF-labeled peptide of 9 residues (RRYQNSTC^5-IAFL)]", "values": [{"measurement": "effect on translocation of NBD*-PS", "setting": "10% (mol/mol) unlabeled POPS, or presence of the 9-mer peptide", "result": "inhibited"}]}, {"molecule": "CCCCCCCC/C=C\\CCCCCCCC(=O)OC[C@H](COP(=O)(O)OC[C@H](N)C(=O)O)OC(=O)CCCCCNc1ccc([N+](=O)[O-])c2nonc12", "note": "[NBD*-PS, 1-oleoyl-2-{6-[(7-nitro-2-1,3-benzoxadiazol-4-yl)amino]hexanoyl}-sn-glycero-3-phosphoserine]", "values": [{"measurement": "difference of inner leaflet fluorescence with and without hydrolysable ATP", "setting": "Mg2+/ATP minus Na+/ATP", "result": "~ 4.5%"}, {"measurement": "NBD*-PS fluorescence intensity (net percentage transported outer to inner leaflet)", "setting": "Mg2+/ATP minus Na+/ATP, 5 mM ATP, 37 °C 1 h, no peptide, no POPS, mean n=9", "result": 4.53, "unit": "%"}, {"measurement": "NBD*-PS fluorescence intensity (net percentage transported)", "setting": "Mg2+/ATP minus Na+/ATP, with 9-mer peptide, mean n=5", "result": 2.081, "unit": "%"}, {"measurement": "NBD*-PS fluorescence intensity (net percentage transported)", "setting": "Mg2+/ATP minus Na+/ATP, with 10% (mol/mol) POPS, mean n=5", "result": 2.6371, "unit": "%"}, {"measurement": "fluorescence remaining after dithionite", "setting": "Mg2+/ATP, % of original value", "result": "~ 36.2%"}, {"measurement": "ATP-dependent lipid transport by ΔTMD0", "setting": "NBD*-labeled lipid, PE, PG, PC and cholesterol data not shown", "result": "high"}, {"measurement": "fluorescence remaining after dithionite", "setting": "Na+/ATP, % of original fluorescence", "result": "~ 31.7%"}, {"measurement": "NBD*-PS fluorescence intensity (net percentage transported)", "setting": "no peptide, no POPS, replicate I", "result": 5.0115, "unit": "%"}, {"measurement": "NBD*-PS fluorescence intensity (net percentage transported)", "setting": "no peptide, no POPS, replicate II", "result": 5.082, "unit": "%"}, {"measurement": "NBD*-PS fluorescence intensity (net percentage transported)", "setting": "no peptide, no POPS, replicate III", "result": 5.234, "unit": "%"}, {"measurement": "NBD*-PS fluorescence intensity (net percentage transported)", "setting": "no peptide, no POPS, replicate IV", "result": 3.911, "unit": "%"}, {"measurement": "NBD*-PS fluorescence intensity (net percentage transported)", "setting": "no peptide, no POPS, replicate IX", "result": 4.577, "unit": "%"}, {"measurement": "NBD*-PS fluorescence intensity (net percentage transported)", "setting": "no peptide, no POPS, replicate V", "result": 3.922, "unit": "%"}, {"measurement": "NBD*-PS fluorescence intensity (net percentage transported)", "setting": "no peptide, no POPS, replicate VI", "result": 4.247, "unit": "%"}, {"measurement": "NBD*-PS fluorescence intensity (net percentage transported)", "setting": "no peptide, no POPS, replicate VII", "result": 4.366, "unit": "%"}, {"measurement": "NBD*-PS fluorescence intensity (net percentage transported)", "setting": "no peptide, no POPS, replicate VIII", "result": 4.416, "unit": "%"}, {"measurement": "NBD*-PS fluorescence intensity (net percentage transported)", "setting": "with 9-mer peptide, replicate I", "result": 2.499, "unit": "%"}, {"measurement": "NBD*-PS fluorescence intensity (net percentage transported)", "setting": "with 9-mer peptide, replicate II", "result": 2.553, "unit": "%"}, {"measurement": "NBD*-PS fluorescence intensity (net percentage transported)", "setting": "with 9-mer peptide, replicate III", "result": 1.795, "unit": "%"}, {"measurement": "NBD*-PS fluorescence intensity (net percentage transported)", "setting": "with 9-mer peptide, replicate IV", "result": 1.566, "unit": "%"}, {"measurement": "NBD*-PS fluorescence intensity (net percentage transported)", "setting": "with 9-mer peptide, replicate V", "result": 1.9894, "unit": "%"}, {"measurement": "NBD*-PS fluorescence intensity (net percentage transported)", "setting": "with 10% (mol/mol) POPS, replicate I", "result": 2.817, "unit": "%"}, {"measurement": "NBD*-PS fluorescence intensity (net percentage transported)", "setting": "with 10% (mol/mol) POPS, replicate II", "result": 2.678, "unit": "%"}, {"measurement": "NBD*-PS fluorescence intensity (net percentage transported)", "setting": "with 10% (mol/mol) POPS, replicate III", "result": 2.164, "unit": "%"}, {"measurement": "NBD*-PS fluorescence intensity (net percentage transported)", "setting": "with 10% (mol/mol) POPS, replicate IV", "result": 2.878, "unit": "%"}, {"measurement": "NBD*-PS fluorescence intensity (net percentage transported)", "setting": "with 10% (mol/mol) POPS, replicate V", "result": 2.648, "unit": "%"}, {"measurement": "true active floppase activity of the transporter", "setting": "ΔTMD0 minus E664Q", "result": "~ 2.6%"}]}]}
